From PubChem BioAssay AID2060489 (Molecular Pharmacology Branch, DTP, NCI, 2025)

Tested on: 922993-354-T-J3-PDC complex spheroids, viability
Test: Anticancer human tumor 922993-354-T-J3-PDC patient-derived endometrial carcinoma cell line growth inhibition [GQUAD]
Conditions: for IC50: curve of first compound; for viability, T/C: stronger effect = lower value
In short: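 Viability of tumor cells grown as complex spheroids with endothelial and stromal cells, exposed to drug combinations. Top concentration at or near clinical Cmax (else 10 microM), diluted in half-log increments.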

[1] = second compound 0.0316 µM, first compound 0.0316 µM
[2] = second compound 0.0316 µM, first compound 0.1 µM
[3] = second compound 0.0316 µM, first compound 0.316 µM
[4] = second compound 0.0316 µM, first compound 1 µM
[5] = second compound 0.0316 µM, first compound 3.16 µM
[6] = second compound 0.0316 µM, first compound 10 µM
[7] = second compound 0.1 µM, first compound 0.0316 µM
[8] = second compound 0.1 µM, first compound 0.1 µM
[9] = second compound 0.1 µM, first compound 0.316 µM
[10] = second compound 0.1 µM, first compound 1 µM
[11] = second compound 0.1 µM, first compound 3.16 µM
[12] = second compound 0.1 µM, first compound 10 µM
[13] = second compound 0.316 µM, first compound 0.0316 µM
[14] = second compound 0.316 µM, first compound 0.1 µM
[15] = second compound 0.316 µM, first compound 0.316 µM
[16] = second compound 0.316 µM, first compound 1 µM
[17] = second compound 0.316 µM, first compound 3.16 µM
[18] = second compound 0.316 µM, first compound 10 µM
[19] = second compound 1 µM, first compound 0.0316 µM
[20] = second compound 1 µM, first compound 0.1 µM
[21] = second compound 1 µM, first compound 0.316 µM
[22] = second compound 1 µM, first compound 1 µM
[23] = second compound 1 µM, first compound 3.16 µM
[24] = second compound 1 µM, first compound 10 µM
[25] = second compound 3.16 µM, first compound 0.0316 µM
[26] = second compound 3.16 µM, first compound 0.1 µM
[27] = second compound 3.16 µM, first compound 0.316 µM
[28] = second compound 3.16 µM, first compound 1 µM
[29] = second compound 3.16 µM, first compound 3.16 µM
[30] = second compound 3.16 µM, first compound 10 µM
[31] = second compound 10 µM, first compound 0.0316 µM
[32] = second compound 10 µM, first compound 0.1 µM
[33] = second compound 10 µM, first compound 0.316 µM
[34] = second compound 10 µM, first compound 1 µM
[35] = second compound 10 µM, first compound 3.16 µM
[36] = second compound 10 µM, first compound 10 µM
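Also: spheroids exposed to compounds for seven days.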
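For viability, T/C in this document: 100% = DMSO vehicle control viability.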

CCCS(=O)(=O)Nc1ccc(F)c(C(=O)c2c[nH]c3ncc(-c4ccc(Cl)cc4)cc23)c1F + Cc1[nH]c2ccc(F)cc2c1-c1nc2c3cccnc3c3ncccc3c2[nH]1
IC50 (second compound 0.0316 µM): > 10000 nM
IC50 (second compound 0.1 µM): > 10000 nM
IC50 (second compound 0.316 µM): > 10000 nM
IC50 (second compound 1 µM): > 10000 nM
IC50 (second compound 3.16 µM): > 10000 nM
IC50 (second compound 10 µM): > 10000 nM
viability, T/C [1]: 113%
viability, T/C [2]: 101%
viability, T/C [3]: 78.5%
viability, T/C [4]: 69.4%
viability, T/C [5]: 77.3%
viability, T/C [6]: 68.4%
viability, T/C [7]: 119%
viability, T/C [8]: 99.2%
viability, T/C [9]: 75.7%
viability, T/C [10]: 81.2%
viability, T/C [11]: 76.9%
viability, T/C [12]: 57.1%
viability, T/C [13]: 101%
viability, T/C [14]: 82.4%
viability, T/C [15]: 81.5%
viability, T/C [16]: 77.2%
viability, T/C [17]: 78.2%
viability, T/C [18]: 56.2%
viability, T/C [19]: 93%
viability, T/C [20]: 83.5%
viability, T/C [21]: 61.9%
viability, T/C [22]: 92.9%
viability, T/C [23]: 82%
viability, T/C [24]: 56.7%
viability, T/C [25]: 91.2%
viability, T/C [26]: 98.6%
viability, T/C [27]: 82.5%
viability, T/C [28]: 87.5%
viability, T/C [29]: 76.4%
viability, T/C [30]: 60.9%
viability, T/C [31]: 96.9%
viability, T/C [32]: 99.7%
viability, T/C [33]: 85.4%
viability, T/C [34]: 81.4%
viability, T/C [35]: 76.9%
viability, T/C [36]: 64%

Cc1[nH]c2ccccc2c1CCNCc1ccc(/C=C/C(=O)NO)cc1 + Cc1[nH]c2ccc(F)cc2c1-c1nc2c3cccnc3c3ncccc3c2[nH]1
IC50 (second compound 0.0316 µM): > 316 nM
IC50 (second compound 0.1 µM): > 316 nM
IC50 (second compound 0.316 µM): > 316 nM
IC50 (second compound 1 µM): > 316 nM
IC50 (second compound 3.16 µM): > 316 nM
IC50 (second compound 10 µM): > 316 nM
viability, T/C (second compound 0.0316 µM, first compound 0.000999 µM): 95.9%
viability, T/C (second compound 0.0316 µM, first compound 0.00316 µM): 87%
viability, T/C (second compound 0.0316 µM, first compound 0.00999 µM): 100%
viability, T/C [1]: 77.6%
viability, T/C (second compound 0.0316 µM, first compound 0.0999 µM): 75.6%
viability, T/C [3]: 61.3%
viability, T/C (second compound 0.1 µM, first compound 0.000999 µM): 94.1%
viability, T/C (second compound 0.1 µM, first compound 0.00316 µM): 100%
viability, T/C (second compound 0.1 µM, first compound 0.00999 µM): 85.3%
viability, T/C [7]: 83.3%
viability, T/C (second compound 0.1 µM, first compound 0.0999 µM): 79.3%
viability, T/C [9]: 55.8%
viability, T/C (second compound 0.316 µM, first compound 0.000999 µM): 96.2%
viability, T/C (second compound 0.316 µM, first compound 0.00316 µM): 93.5%
viability, T/C (second compound 0.316 µM, first compound 0.00999 µM): 91%
viability, T/C [13]: 81.2%
viability, T/C (second compound 0.316 µM, first compound 0.0999 µM): 88.3%
viability, T/C [15]: 66.9%
viability, T/C (second compound 1 µM, first compound 0.000999 µM): 96.3%
viability, T/C (second compound 1 µM, first compound 0.00316 µM): 92.2%
viability, T/C (second compound 1 µM, first compound 0.00999 µM): 115%
viability, T/C [19]: 84%
viability, T/C (second compound 1 µM, first compound 0.0999 µM): 100%
viability, T/C [21]: 50.6%
viability, T/C (second compound 3.16 µM, first compound 0.000999 µM): 93.5%
viability, T/C (second compound 3.16 µM, first compound 0.00316 µM): 80.6%
viability, T/C (second compound 3.16 µM, first compound 0.00999 µM): 80%
viability, T/C [25]: 79.1%
viability, T/C (second compound 3.16 µM, first compound 0.0999 µM): 95.4%
viability, T/C [27]: 71.8%
viability, T/C (second compound 10 µM, first compound 0.000999 µM): 82.6%
viability, T/C (second compound 10 µM, first compound 0.00316 µM): 109%
viability, T/C (second compound 10 µM, first compound 0.00999 µM): 88.2%
viability, T/C [31]: 82.8%
viability, T/C (second compound 10 µM, first compound 0.0999 µM): 112%
viability, T/C [33]: 70.3%

O=C(NO)c1cnc(N2CCN(S(=O)(=O)c3ccc4ccccc4c3)CC2)nc1 + Cc1[nH]c2ccc(F)cc2c1-c1nc2c3cccnc3c3ncccc3c2[nH]1
IC50 (second compound 0.0316 µM): 409 nM
IC50 (second compound 0.1 µM): 542 nM
IC50 (second compound 0.316 µM): 772 nM
IC50 (second compound 1 µM): 870 nM
IC50 (second compound 3.16 µM): 1120 nM
IC50 (second compound 10 µM): 921 nM
viability, T/C [1]: 116%
viability, T/C [2]: 89.1%
viability, T/C [3]: 52.9%
viability, T/C [4]: 34.6%
viability, T/C [5]: 3.09%
viability, T/C [6]: 0.42%
viability, T/C [7]: 114%
viability, T/C [8]: 89.5%
viability, T/C [9]: 65%
viability, T/C [10]: 38.6%
viability, T/C [11]: 3.39%
viability, T/C [12]: 0.48%
viability, T/C [13]: 93.2%
viability, T/C [14]: 95.9%
viability, T/C [15]: 72.2%
viability, T/C [16]: 46.6%
viability, T/C [17]: 4.7%
viability, T/C [18]: 0.61%
viability, T/C [19]: 84.2%
viability, T/C [20]: 90.3%
viability, T/C [21]: 68.7%
viability, T/C [22]: 51.2%
viability, T/C [23]: 6.64%
viability, T/C [24]: 0.62%
viability, T/C [25]: 75.7%
viability, T/C [26]: 86.5%
viability, T/C [27]: 91.1%
viability, T/C [28]: 51.4%
viability, T/C [29]: 15%
viability, T/C [30]: 0.64%
viability, T/C [31]: 82.8%
viability, T/C [32]: 101%
viability, T/C [33]: 74.7%
viability, T/C [34]: 48.2%
viability, T/C [35]: 14.7%
viability, T/C [36]: 0.76%

O=c1[nH]cc(F)c(=O)[nH]1 + Cc1[nH]c2ccc(F)cc2c1-c1nc2c3cccnc3c3ncccc3c2[nH]1
IC50 (second compound 0.0316 µM): > 10000 nM
IC50 (second compound 0.1 µM): > 10000 nM
IC50 (second compound 0.316 µM): > 10000 nM
IC50 (second compound 1 µM): > 10000 nM
IC50 (second compound 3.16 µM): > 10000 nM
IC50 (second compound 10 µM): > 10000 nM
viability, T/C [1]: 85%
viability, T/C [2]: 77.8%
viability, T/C [3]: 113%
viability, T/C [4]: 105%
viability, T/C [5]: 80.4%
viability, T/C [6]: 55.3%
viability, T/C [7]: 117%
viability, T/C [8]: 87.6%
viability, T/C [9]: 102%
viability, T/C [10]: 99.6%
viability, T/C [11]: 69.2%
viability, T/C [12]: 66.4%
viability, T/C [13]: 119%
viability, T/C [14]: 83.7%
viability, T/C [15]: 103%
viability, T/C [16]: 94.3%
viability, T/C [17]: 95.5%
viability, T/C [18]: 64.8%
viability, T/C [19]: 87.2%
viability, T/C [20]: 104%
viability, T/C [21]: 95.8%
viability, T/C [22]: 71.6%
viability, T/C [23]: 82.1%
viability, T/C [24]: 53.9%
viability, T/C [25]: 90%
viability, T/C [26]: 84.6%
viability, T/C [27]: 98.8%
viability, T/C [28]: 96.8%
viability, T/C [29]: 76.2%
viability, T/C [30]: 59%
viability, T/C [31]: 104%
viability, T/C [32]: 109%
viability, T/C [33]: 93.6%
viability, T/C [34]: 92.6%
viability, T/C [35]: 103%
viability, T/C [36]: 61.6%
